According to US11766470B2, “Manufacture, formulation and dosing of apraglutide” (VectivBio AG, priority 2020, dated 2023):
Square brackets hold non-standard residues; d marks the D form. Peptide text beside a SMILES is read from it. ξ: configuration not given here. Ile(3ξ) = CCC(C)[C@H](N)C(=O)O; Thr(3ξ) = CC(O)[C@H](N)C(=O)O; Nle = CCCC[C@H](N)C(=O)O

Tests used:
[1] = Multiple dose study in healthy volunteers (Examples 4 and 7), pharmacokinetics of plasma apraglutide, non-compartmental analysis; settings: human, plasma, subcutaneous, 10 mg
Procedure: (§1) 23 healthy adult volunteers received 6 weekly subcutaneous doses of apraglutide (1, 5, or 10 mg) or placebo and were followed for a further 6 weeks after the last dose. Blood collections were controlled for diet, lifestyle, and diurnal effects. […] PK data underwent non-compartmental analysis and PD data were analyzed by ANCOVA.
(§2) As with citrulline, a statistical steady-state analysis per dose level was performed for apraglutide using Helmert's approach.

[2] = tested on: anti-apraglutide antibodies; experiment: Anti-apraglutide antibodies ELISA in serum, Phase 2 metabolic balance trial (Example 6); assay type: in vivo, human
Procedure: Blood samples for analysis of the plasma concentration of apraglutide and plasma concentration of fasting L-citrulline, a marker of enterocyte mass, were collected at baseline, during first and second injection (pre-dose and at sequential timepoints), four days after first injection and at the end of treatment. Blood sampling for apraglutide pharmacokinetics was also performed after the fourth and last injection covering 96 hours. […] Blood samples for anti-apraglutide antibodies were collected at baseline, at the end of treatment and at the 4-6 weeks follow-up visit. All eight patients tested negative for anti-apraglutide antibodies at baseline.
A fully validated ELISA method was used for the detection of anti-apraglutide antibodies in serum, following a three-tiered assay approach. In the first tier, anti-apraglutide antibodies present in samples and controls bonded to apraglutide immobilized on a microtiter plate. The bound anti-apraglutide antibodies were then detected with protein A/G and protein L. A sample with a signal above the validated screening cut-point was considered potentially positive and was then tested in the second tier, the confirmatory assay. For this, samples were pre-treated with an excess of apraglutide prior to testing them in the assay described above. […] Titers were then determined by serial dilution of all confirmed positive samples.

patients with SBS-IF = experiment: Safety assessments (adverse events) in Phase 2 SBS-IF trial (Example 5)
Procedure: In Part A, patients were treated with 5 mg apraglutide or placebo once weekly for 4 weeks. After a washout period of 6-10 weeks, the alternate treatment was given. Part A was followed by a second washout period of 6-10 weeks before patients entered Part B. Part B was an open-label dosing regimen with 10 mg apraglutide given once weekly for 4 weeks. The additional open-label treatment period (Part B) was included to investigate the safety and tolerability of 10 mg dosing. The procedures during each treatment period were consistent. The trial drug was provided as a freeze-dried powder for reconstitution and was administered as subcutaneous injections in the abdominal area.
Safety assessments were performed for each treatment period and included observation for injection site reactions, vital signs, blood samples, electrocardiogram (ECG), dipstick urinalysis, body weight and liver enzymes. […] Additionally, liver enzymes were measured prior to each drug administration.

clinical = settings: human, in vivo; for half-life: t1/2, arithmetic mean ± SD; for CL/F: sc
Procedure: as §1, §2

[3] = whole trial, incl. placebo periods

Compound: CCCC[C@H](NC(=O)[C@H](CCC(=O)O)NC(=O)[C@H](CC(=O)O)NC(=O)[C@H](CO)NC(=O)[C@H](Cc1ccccc1)NC(=O)[C@H](CO)NC(=O)CNC(=O)[C@H](CC(=O)O)NC(=O)CNC(=O)[C@@H](N)Cc1c[nH]cn1)C(=O)N[C@H](Cc1ccccc1)C(=O)N[C@H](C(=O)N[C@H](C(=O)N[C@@H](CC(C)C)C(=O)N[C@@H](CC(=O)O)C(=O)N[C@@H](CC(C)C)C(=O)N[C@@H](CC(C)C)C(=O)N[C@@H](C)C(=O)N[C@@H](C)C(=O)N[C@@H](CCCNC(=N)N)C(=O)N[C@@H](CC(=O)O)C(=O)N[C@@H](Cc1ccccc1)C(=O)N[C@H](C(=O)N[C@@H](CC(N)=O)C(=O)N[C@@H](Cc1c[nH]c2ccccc12)C(=O)N[C@@H](CC(C)C)C(=O)N[C@H](C(=O)N[C@@H](CCC(N)=O)C(=O)N[C@H](C(=O)N[C@@H](CCCCN)C(=O)N[C@H](C(=O)N[C@H](C(=O)N[C@@H](CC(=O)O)C(N)=O)C(C)O)C(C)CC)C(C)O)C(C)CC)C(C)CC)C(C)CC)C(C)O (stereo partly drawn) [apraglutide, L-histidyl-glycyl-L-aspartyl-glycyl-L-seryl-L-phenylalanyl-L-seryl-L-aspartyl-L-glutamyl-L-norleucyl-D-phenylalanyl-L-threonyl-Lisoleucyl-L-leucyl-L-aspartyl-L-leucyl-L-leucyl-L-alanyl-L-alanyl-L-arginyl-L-aspartyl-L-phenylalanyl-L-isoleucyl-L-asparaginyl-Ltryptophanyl-L-leucyl-L-isoleucyl-L-glutaminyl-L-threonyl-L-lysyl-L-isoleucyl-L-threonyl-Laspartic acid amide] (H-HGDGSFSDE[Nle][dF][Thr(3ξ)][Ile(3ξ)]LDLLAARDF[Ile(3ξ)]NWL[Ile(3ξ)]Q[Thr(3ξ)]K[Ile(3ξ)][Thr(3ξ)]D-NH2)
- Cmax ([1]; arithmetic mean ± SD, (first dose)): 137 ± 55 ng/mL
- Cmax ([1]; arithmetic mean ± SD, dose #6): 182 ± 97.6 ng/mL
- Cmax ([1]; geometric mean (geometric coefficient of variation %), (first dose)): 128 ± 39.9 ng/mL
- half-life ([1]; Half life, following dose #6): 76.3 ± 27.6 h
- half-life ([1]; t1/2, lower section headed Arithmetic mean ± standard deviation, dose #6 (N = 5)): 72 h
- Tmax ([1]; tmax at dose 1 and 6, 10 mg): ~48 h
- Tmax ([1]; tmax, median, (first dose)): 45.6 h
- Tmax ([1]; tmax, median, dose #6): 45.6 h
- Patients who developed anti-apraglutide antibodies ([2]; during the trial, patient with SBS-IF): One
- Effects of anti-apraglutide antibodies on PK profile, pharmacodynamic response, adverse events ([2]; in vivo): No effects of anti-apraglutide antibodies were detected
- Any related adverse events, number of patients (patients with SBS-IF; 5 mg (N = 8)): 8
- Decreased appetite, number of patients (patients with SBS-IF; 5 mg (N = 8)): 1
- Edema, number of patients (patients with SBS-IF; 5 mg (N = 8)): 2
- Gastrointestinal stoma complication, number of patients (patients with SBS-IF; 5 mg (N = 8)): 5
- Gastrointestinal stoma output abnormal, number of patients (patients with SBS-IF; 5 mg (N = 8)): 4
- Gastrointestinal stoma output decreased, number of patients (patients with SBS-IF; 5 mg (N = 8)): 3
- Increased weight, number of patients (patients with SBS-IF; 5 mg (N = 8)): 1
- Polyuria, number of patients (patients with SBS-IF; 5 mg (N = 8)): 4
- Stoma complication, number of patients (patients with SBS-IF; 5 mg (N = 8)): 6
- Thirst decreased, number of patients (patients with SBS-IF; 5 mg (N = 8)): 3
- Injection site reactions, number of patients (patients with SBS-IF; 5 mg dose group): one
- Any related adverse events, number of patients (patients with SBS-IF; 10 mg (N = 8)): 8
- Decreased appetite, number of patients (patients with SBS-IF; 10 mg (N = 8)): 2
- Edema, number of patients (patients with SBS-IF; 10 mg (N = 8)): 2
- Gastrointestinal stoma complication, number of patients (patients with SBS-IF; 10 mg (N = 8)): 5
- Gastrointestinal stoma output abnormal, number of patients (patients with SBS-IF; 10 mg (N = 8)): 4
- Gastrointestinal stoma output decreased, number of patients (patients with SBS-IF; 10 mg (N = 8)): 6
- Increased weight, number of patients (patients with SBS-IF; 10 mg (N = 8)): 2
- Polyuria, number of patients (patients with SBS-IF; 10 mg (N = 8)): 6
- Stoma complication, number of patients (patients with SBS-IF; 10 mg (N = 8)): 6
- Thirst decreased, number of patients (patients with SBS-IF; 10 mg (N = 8)): 4
- Injection site reactions, number of patients (patients with SBS-IF; 10 mg dose group): three
- Safety and tolerability in words (patients with SBS-IF; 5 and 10 mg once weekly for four weeks): well tolerated and safe
- Any related adverse events, number of patients (patients with SBS-IF; Total, all periods (N = 8)): 8
- Decreased appetite, number of patients (patients with SBS-IF; Total, all periods (N = 8)): 3
- Edema, number of patients (patients with SBS-IF; Total, all periods (N = 8)): 4
- Gastrointestinal stoma complication, number of patients (patients with SBS-IF; Total, all periods (N = 8)): 5
- Gastrointestinal stoma output abnormal, number of patients (patients with SBS-IF; Total, all periods (N = 8)): 5
- Gastrointestinal stoma output decreased, number of patients (patients with SBS-IF; Total, all periods (N = 8)): 6
- Increased weight, number of patients (patients with SBS-IF; Total, all periods (N = 8)): 3
- Polyuria, number of patients (patients with SBS-IF; Total, all periods (N = 8)): 7
- Stoma complication, number of patients (patients with SBS-IF; Total, all periods (N = 8)): 6
- Thirst decreased, number of patients (patients with SBS-IF; Total, all periods (N = 8)): 5
- Deaths (patients with SBS-IF; whole trial): no deaths
- Injection site reactions, number of patients (patients with SBS-IF; whole trial): Three
- Serious adverse events related to the trial drug (patients with SBS-IF; whole trial): None of these were considered related to the trial drug
- Patients reporting serious adverse events (patients with SBS-IF; [3]): 5 patients
- Serious adverse events, number of cases (patients with SBS-IF; [3]): 8 cases
- Vd/F (clinical; 5 mg): 55.4 L
- half-life (clinical; 5 mg): 73 h
- Vd/F (clinical; 10 mg): 105 L
- half-life (clinical; 10 mg): 76.3 h
- CL/F (clinical; 1 mg): 12.2 mL/min
- CL/F (clinical; 5 mg): 11.4 mL/min
- CL/F (clinical; 10 mg): 14.4 mL/min
